Tests used:
CDK1 = target: T1, CDK1 (Homo sapiens, UniProt P06493); assay: CDK-1 kinase screening assay (33P-ATP FlashPlate); format: biochemical; details: human CDK1 with cyclin B; 10 μM ATP; 1 hr at 30° C
T1 construct: purchased New England Biolabs, Beverly, Mass; 6020; host or cells: insect cells

VEGF-R2 = target: T2, VEGF-R2 (Rattus norvegicus, UniProt O08775); assay: VEGF-R2 kinase screening assay (33P-ATP FlashPlate); format: biochemical; details: rat VEGF-R2 kinase domain; 10 μM ATP; 1 hr at 30° C;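 note: Read-out is ³³P incorporation from ³³P-γ-ATP into biotinylated peptide substrate captured on streptavidin FlashPlate, counted by scintillation, 1% DMSO final, inhibition scaled between per-plate maximum and minimum signals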
T2 construct: polyhistidine (N)
T2 sequence (O08775 786-1343): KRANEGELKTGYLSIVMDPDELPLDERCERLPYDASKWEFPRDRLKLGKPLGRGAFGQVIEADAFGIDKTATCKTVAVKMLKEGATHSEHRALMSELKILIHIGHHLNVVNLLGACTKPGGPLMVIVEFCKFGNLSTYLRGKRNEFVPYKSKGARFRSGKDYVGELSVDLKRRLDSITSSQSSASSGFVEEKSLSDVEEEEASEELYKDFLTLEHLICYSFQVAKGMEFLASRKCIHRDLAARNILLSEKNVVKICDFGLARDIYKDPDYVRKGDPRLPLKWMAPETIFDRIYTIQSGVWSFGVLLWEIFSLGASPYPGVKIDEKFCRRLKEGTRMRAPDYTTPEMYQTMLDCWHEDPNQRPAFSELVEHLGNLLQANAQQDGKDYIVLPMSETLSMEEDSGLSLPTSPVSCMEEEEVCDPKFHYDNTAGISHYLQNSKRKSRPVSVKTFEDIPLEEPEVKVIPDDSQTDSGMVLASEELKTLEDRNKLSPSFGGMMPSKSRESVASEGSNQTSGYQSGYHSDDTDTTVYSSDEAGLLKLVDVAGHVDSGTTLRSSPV

HER2 = target: T3, HER2 (Homo sapiens, UniProt P04626); assay: HER2 kinase screening assay (33P-ATP FlashPlate); format: biochemical; details: GST-HIS6 HER-2 aa 679 to 1255; 10 μM ATP; 1 hr at 30° C;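 note: Biotin-poly(GT) 4:1 peptide captured on streptavidin FlashPlate, 33P transfer from γ-ATP read by scintillation counting, lower incorporation means inhibition, 1% DMSO final, 100 µL reaction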
T3 construct: GST (Glutathione-S-Transferase) (N); HIS6 (N); thrombin cleavage site (N); purchased Proqinase, Freiburg, Germany
T3 sequence (P04626 679-1255): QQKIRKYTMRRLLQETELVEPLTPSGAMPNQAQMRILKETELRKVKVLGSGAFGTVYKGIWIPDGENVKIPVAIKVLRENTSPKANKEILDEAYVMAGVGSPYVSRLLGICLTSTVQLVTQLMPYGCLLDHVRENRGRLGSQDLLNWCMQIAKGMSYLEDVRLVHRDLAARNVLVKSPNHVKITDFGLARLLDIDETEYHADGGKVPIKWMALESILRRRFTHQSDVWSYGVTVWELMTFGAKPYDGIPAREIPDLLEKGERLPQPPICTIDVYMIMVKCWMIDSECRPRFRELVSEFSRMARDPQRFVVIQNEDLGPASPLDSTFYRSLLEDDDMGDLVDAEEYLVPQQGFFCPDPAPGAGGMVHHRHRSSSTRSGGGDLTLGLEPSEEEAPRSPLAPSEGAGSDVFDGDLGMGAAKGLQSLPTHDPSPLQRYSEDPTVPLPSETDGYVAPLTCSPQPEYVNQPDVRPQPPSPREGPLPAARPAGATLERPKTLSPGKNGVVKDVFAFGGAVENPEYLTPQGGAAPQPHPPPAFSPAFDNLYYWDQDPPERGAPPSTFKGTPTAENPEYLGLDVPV

Aurora-A = target: T4, Aurora-A (Mus musculus, UniProt P97477); assay: Aurora-A kinase screening assay (33P-ATP FlashPlate); format: biochemical; details: 10 μM ATP, 1 hr at 30° C;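 note: His-tagged mouse Aurora-A phosphorylating a biotinylated peptide captured on streptavidin plates, read as 33P uptake by scintillation counting, 1% DMSO, inhibition scaled between per-plate maximum and minimum signals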
T4 construct: polyhistidine (N)
T4 sequence (P97477 1-395): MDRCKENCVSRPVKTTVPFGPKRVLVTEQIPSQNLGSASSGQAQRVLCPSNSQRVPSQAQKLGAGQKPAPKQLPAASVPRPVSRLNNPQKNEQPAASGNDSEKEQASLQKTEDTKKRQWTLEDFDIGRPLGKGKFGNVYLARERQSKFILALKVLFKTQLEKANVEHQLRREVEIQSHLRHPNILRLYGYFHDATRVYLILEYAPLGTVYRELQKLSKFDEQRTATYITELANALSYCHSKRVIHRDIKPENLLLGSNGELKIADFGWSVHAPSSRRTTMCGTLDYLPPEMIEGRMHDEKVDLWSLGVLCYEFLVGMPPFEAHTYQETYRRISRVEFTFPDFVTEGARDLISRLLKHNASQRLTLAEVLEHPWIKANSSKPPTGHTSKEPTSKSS

RET = target: T5, RET (Homo sapiens, UniProt P07949); assay: RET kinase screening assay (33P-ATP FlashPlate); format: biochemical; details: human RET kinase domain; 10 μM ATP; 1 hr at 30° C;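 note: biotinylated peptide substrate captured on streptavidin FlashPlate, 33P phosphate transfer read by scintillation counting, 1% DMSO, lower incorporation means inhibition, percent relative to per-plate maximum and minimum signals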
T5 construct: polyhistidine (N)
T5 sequence (P07949 658-1114 limits assumed): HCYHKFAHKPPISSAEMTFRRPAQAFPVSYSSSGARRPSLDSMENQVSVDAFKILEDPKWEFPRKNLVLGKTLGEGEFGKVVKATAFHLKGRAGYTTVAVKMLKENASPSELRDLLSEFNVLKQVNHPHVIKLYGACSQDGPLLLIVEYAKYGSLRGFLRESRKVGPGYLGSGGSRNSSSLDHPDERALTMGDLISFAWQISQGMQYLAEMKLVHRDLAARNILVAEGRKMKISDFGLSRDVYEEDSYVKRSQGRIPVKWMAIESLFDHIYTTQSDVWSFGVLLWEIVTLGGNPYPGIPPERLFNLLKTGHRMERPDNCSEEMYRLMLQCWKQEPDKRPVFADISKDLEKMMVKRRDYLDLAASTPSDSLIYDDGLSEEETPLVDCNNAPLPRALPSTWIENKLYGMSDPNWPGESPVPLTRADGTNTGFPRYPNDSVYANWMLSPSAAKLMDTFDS

c-Src kinase = target: T6, c-Src kinase (Homo sapiens, UniProt P12931); assay: c-Src Kinase Assay; format: biochemical; details: 5 μM ATP
T6 construct: purchased Upstate Biotechnology, Lake Placid, N.Y
T6 sequence (P12931 whole entry): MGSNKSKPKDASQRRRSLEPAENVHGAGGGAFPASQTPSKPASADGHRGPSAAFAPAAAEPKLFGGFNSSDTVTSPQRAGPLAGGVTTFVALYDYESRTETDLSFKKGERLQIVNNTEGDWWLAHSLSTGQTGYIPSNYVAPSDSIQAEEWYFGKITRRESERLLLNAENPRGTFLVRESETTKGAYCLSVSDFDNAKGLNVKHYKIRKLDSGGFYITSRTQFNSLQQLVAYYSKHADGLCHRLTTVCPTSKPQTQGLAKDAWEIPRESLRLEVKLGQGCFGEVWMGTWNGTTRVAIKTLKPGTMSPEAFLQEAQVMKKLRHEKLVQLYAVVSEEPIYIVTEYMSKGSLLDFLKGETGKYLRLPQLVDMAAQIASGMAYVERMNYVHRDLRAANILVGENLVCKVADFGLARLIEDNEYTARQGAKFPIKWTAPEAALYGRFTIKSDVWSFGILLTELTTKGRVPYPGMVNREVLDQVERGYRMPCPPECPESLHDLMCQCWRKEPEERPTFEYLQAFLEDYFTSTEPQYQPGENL
How it was run: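 Human c-Src phosphorylated Cdc2 peptide (100 μM) […]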

Lyn kinase = target: T7, Lyn kinase (Homo sapiens, UniProt P07948); assay: Lyn Kinase Assay; format: biochemical; details: 5 μM ATP
T7 construct: purchased Upstate Biotechnology, Lake Placid, N.Y
T7 sequence (P07948 whole entry): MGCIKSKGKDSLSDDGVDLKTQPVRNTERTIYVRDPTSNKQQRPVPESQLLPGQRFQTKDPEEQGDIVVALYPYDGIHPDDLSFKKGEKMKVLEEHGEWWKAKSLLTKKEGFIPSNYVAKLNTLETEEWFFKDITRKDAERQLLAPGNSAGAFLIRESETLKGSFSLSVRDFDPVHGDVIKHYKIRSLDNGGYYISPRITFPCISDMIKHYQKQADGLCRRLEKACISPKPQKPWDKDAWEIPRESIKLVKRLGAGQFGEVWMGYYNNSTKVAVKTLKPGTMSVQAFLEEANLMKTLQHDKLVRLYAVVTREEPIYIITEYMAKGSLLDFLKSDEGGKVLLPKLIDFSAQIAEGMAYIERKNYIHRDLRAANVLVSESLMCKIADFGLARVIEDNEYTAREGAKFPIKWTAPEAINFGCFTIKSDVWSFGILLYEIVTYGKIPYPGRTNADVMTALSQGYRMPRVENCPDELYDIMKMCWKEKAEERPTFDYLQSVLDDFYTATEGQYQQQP
How it was run: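 Recombinant human Lyn kinase in pH 7.5 Tris buffer with EGTA, vanadate, β-mercaptoethanol and BSA reacted with compound for 40 min at 30° C. The radiolabelled product was captured on P30 filtermats after phosphoric acid stop and counted by scintillation. IC50 came from percent inhibition versus log concentration, using plate maximum/minimum signals.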

[1] = system: HeLa cervical adenocarcinoma; assay: Cell Proliferation Inhibition Assay (14C-thymidine incorporation), HeLa; format: cell-based; details: Homo sapiens, HeLa, HeLa cells;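 note: test compound in DMSO added to cells seeded in scintillating 96-well plates, DMSO-only wells as control, uptake of methyl 14C-thymidine into new DNA counted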
A375 malignant melanoma = assay: Cell Proliferation Inhibition Assay (14C-thymidine incorporation), A375; format: cell-based; details: Homo sapiens, A-375, A375 cells;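 note: proliferation measured by radiolabelled thymidine uptake into new DNA, counted in scintillating 96-well plates, compound-treated wells compared with DMSO-only control wells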
HCT-116 colon carcinoma = assay: Cell Proliferation Inhibition Assay (14C-thymidine incorporation), HCT-116; format: cell-based; details: Homo sapiens, HCT-116, HCT-116 cells;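 note: proliferation measured as methyl 14C-thymidine uptake into new DNA, counted in 96-well scintillating microplates, compared with DMSO-only control wells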

T1 sequence (P06493 whole entry): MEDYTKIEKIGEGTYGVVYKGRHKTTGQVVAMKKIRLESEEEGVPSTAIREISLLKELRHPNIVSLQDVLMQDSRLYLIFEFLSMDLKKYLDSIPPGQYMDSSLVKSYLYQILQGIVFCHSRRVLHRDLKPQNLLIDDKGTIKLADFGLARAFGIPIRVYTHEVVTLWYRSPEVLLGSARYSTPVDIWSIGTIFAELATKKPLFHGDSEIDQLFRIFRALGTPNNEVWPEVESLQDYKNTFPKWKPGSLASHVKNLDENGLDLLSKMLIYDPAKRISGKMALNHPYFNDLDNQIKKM
T1 sequence (P14635 whole entry partner): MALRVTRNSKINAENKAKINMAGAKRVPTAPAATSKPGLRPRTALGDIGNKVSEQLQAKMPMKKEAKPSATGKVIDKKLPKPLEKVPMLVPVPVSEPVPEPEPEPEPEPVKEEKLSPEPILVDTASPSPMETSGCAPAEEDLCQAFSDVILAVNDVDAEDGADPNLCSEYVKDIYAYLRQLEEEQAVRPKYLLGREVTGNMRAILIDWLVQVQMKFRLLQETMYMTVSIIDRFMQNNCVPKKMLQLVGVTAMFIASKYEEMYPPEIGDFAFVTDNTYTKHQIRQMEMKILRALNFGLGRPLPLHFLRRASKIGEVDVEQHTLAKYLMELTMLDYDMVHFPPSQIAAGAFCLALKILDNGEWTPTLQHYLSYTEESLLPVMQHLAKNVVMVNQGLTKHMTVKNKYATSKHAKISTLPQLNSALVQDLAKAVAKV

COCc1cccc2[nH]c(-c3n[nH]c4ncc(-c5cncc(CNC(C)C)c5C)cc34)nc12 [Cpd 58, isopropyl-{5-[3-(4-methoxymethyl-1H-benzoimidazol-2-yl)-1H-pyrazolo[3,4-b]pyridin-5-yl]-4-methyl-pyridin-3-ylmethyl}-amine]
IC50 (CDK1): 339 nM | IC50 (VEGF-R2): 3900 nM | IC50 (HER2): > 100000 nM | IC50 (Aurora-A): 12400 nM | IC50 (RET): > 10000 nM | IC50 (c-Src kinase): 653 nM | IC50 (Lyn kinase): 529 nM | IC50 [1]: 2700 nM | IC50 (A375 malignant melanoma): 168 nM | IC50 (HCT-116 colon carcinoma): 459 nM

COCc1cccc2[nH]c(-c3n[nH]c4ncc(-c5cncc(OC)c5)cc34)nc12 [Cpd 64, 3-(4-methoxymethyl-1H-benzoimidazol-2-yl)-5-(5-methoxy-pyridin-3-yl)-1H-pyrazolo[3,4-b]pyridine]
IC50 (CDK1): 80.3 nM | IC50 (VEGF-R2): 160 nM | IC50 (HER2): > 100000 nM | IC50 (Aurora-A): ~10000 nM | IC50 (RET): > 100000 nM | IC50 (c-Src kinase): 621 nM | IC50 (Lyn kinase): 4060 nM | IC50 [1]: 1570 nM | IC50 (A375 malignant melanoma): 11.3 nM | IC50 (HCT-116 colon carcinoma): 26.1 nM

COCc1cccc2[nH]c(-c3n[nH]c4ncc(-c5ccncc5)cc34)nc12 [Cpd 65, 3-(4-methoxymethyl-1H-benzoimidazol-2-yl)-5-pyridin-4-yl-1H-pyrazolo[3,4-b]pyridine]
IC50 (CDK1): > 1000 nM | IC50 (VEGF-R2): 115 nM | IC50 (HER2): > 100000 nM | IC50 (Aurora-A): > 1000 nM | IC50 (RET): > 100000 nM | IC50 (c-Src kinase): 315 nM | IC50 (Lyn kinase): 277 nM | IC50 [1]: 3090 nM | IC50 (A375 malignant melanoma): 22.6 nM | IC50 (HCT-116 colon carcinoma): 62 nM

COCc1cccc2[nH]c(-c3n[nH]c4ncc(-c5ccc(N6CCNCC6)nc5)cc34)nc12 [Cpd 69, 3-(4-methoxymethyl-1H-benzoimidazol-2-yl)-5-(6-piperazin-1-yl-pyridin-3-yl)-1H-pyrazolo[3,4-b]pyridine]
IC50 (CDK1): > 10000 nM | IC50 (VEGF-R2): ~1000 nM | IC50 (HER2): > 100000 nM | IC50 (Aurora-A): > 1000 nM | IC50 (RET): > 100000 nM | IC50 (c-Src kinase): 597 nM | IC50 (Lyn kinase): 2890 nM | IC50 [1]: 1730 nM | IC50 (A375 malignant melanoma): 18.5 nM | IC50 (HCT-116 colon carcinoma): 77 nM

COCc1cccc2[nH]c(-c3n[nH]c4ncc(-c5ccc(F)nc5)cc34)nc12 [Cpd 71, 5-(6-fluoro-pyridin-3-yl)-3-(4-methoxymethyl-1H-benzoimidazol-2-yl)-1H-pyrazolo[3,4-b]pyridine]
IC50 (CDK1): 375 nM | IC50 (VEGF-R2): ~1000 nM | IC50 (HER2): > 100000 nM | IC50 (Aurora-A): > 10000 nM | IC50 (RET): > 100000 nM | IC50 (c-Src kinase): 278 nM | IC50 (Lyn kinase): 9010 nM | IC50 [1]: 2260 nM | IC50 (A375 malignant melanoma): 150 nM | IC50 (HCT-116 colon carcinoma): 283 nM

COCc1cccc2[nH]c(-c3n[nH]c4ncc(-c5cncc(C=NO)c5)cc34)nc12 [Cpd 72, 5-[3-(4-methoxymethyl-1H-benzoimidazol-2-yl)-1H-pyrazolo[3,4-b]pyridin-5-yl]-pyridine-3-carbaldehyde oxime]
IC50 (CDK1): 23.6 nM | IC50 (VEGF-R2): > 100000 nM | IC50 (HER2): > 100000 nM | IC50 (Aurora-A): > 10000 nM | IC50 (RET): > 100000 nM | IC50 (c-Src kinase): 375 nM | IC50 (Lyn kinase): 1050 nM | IC50 [1]: 640 nM | IC50 (A375 malignant melanoma): 10.2 nM | IC50 (HCT-116 colon carcinoma): 29.2 nM
